Source: US12516052B2, “Methyltransferase 5 (PRMT5) inhibitors and methods of treatment” (THE TRUSTEES OF INDIANA UNIVERSITY, priority 2016, dated 2026)
“Also recorded” adds a separate entry of the source.

Tests used:
[1] = Body weight of xenografted NSG mice during treatment; format: in vivo; conditions: 20 mg/kg intraperitoneally 3×/week, over the course of treatment
Description: NSG (NOD scid gamma) mice were obtained from the In Vivo Therapeutics Core at Indiana University School of Medicine. After acclimation for 7 days, NSG mice (6-8 weeks old) were xenografted with mycoplasma-free PANC1 or HT29 cells subcutaneously (1×10^7 PANC1 or 3×10^6 HT29 cells used per mouse in 0.2 ml of a 1:1 mix of phosphate-buffered saline and MATRIGEL™) (BD Biosciences, San Jose, CA). Mice were randomized when tumor volumes reached about 100 mm^3. Mice were treated with either vehicle control or 20 mg/kg of compound (Ia) (drug stock dissolved in 1:1 CREMOPHOR™:ethanol solution) intraperitoneally 3 times per week. Tumor volumes and body weights were measured twice a week. The study was performed in accordance with the guidelines and standards of the Institutional Animal Care and Use Committee (IACUC). […] NSG (NOD scid gamma) mice were obtained from the In Vivo Therapeutics Core at Indiana University School of Medicine. After acclimation for 7 days, NSG mice (6-8 weeks old) were xenografted with mycoplasma-free PANC1 or HT29 cells subcutaneously (1×10^7 PANC1 or 3×10^6 HT29 cells used per mouse in 0.2 ml of a 1:1 mix of phosphate-buffered saline and MATRIGEL™) (BD Biosciences, San Jose, CA). Mice were randomized when tumor volumes reached about 100 mm^3. Mice were treated with either vehicle control or 20 mg/kg of compound (IIa) (drug stock dissolved in 1:1 CREMOPHOR™:ethanol solution) intraperitoneally 3 times per week. Tumor volumes and body weights were measured twice a week. The study was performed in accordance with the guidelines and standards of the Institutional Animal Care and Use Committee (IACUC).

HT29 cells = test: Anchorage-independent (soft agar) growth assay in HT29 cells; format: cell-based; conditions: increasing concentrations
Description: The ability to form colonies suspended in soft agar is a characteristic of cancer cells. By using the stable cell lines established above, an anchorage-independent assay in soft agar was conducted. 2.5% and 1.25% agar were used to prepare the bottom and top layers of the soft agar, respectively. The bottom agar was added to each well of a 6-well plate. 2×10^5 cells for each cell line were then added and mixed into top agar solution and layered on top of the bottom layer. The plates were incubated for 10-20 days at 37° C. and 5% CO2. Images were captured using a Canon EOS Rebel T3i Digital SLR camera (Canon, Woodridge, IL) and quantification of colony size and number was performed using ImageJ. […] A soft agar experiment was also performed to determine the effect of compound (IIa) on colony growth.

[2] = system: PDAC cells (PANC1, MiaPaCa2 and AsPC1); test: MTT cell viability assay in PDAC cell lines; format: cell-based
Description: (§1) The PRMT5 inhibitory activity of the compounds from the screen was confirmed using both AlphaLISA and an MTT [(3-(4,5-dimethylthiazolyl-2)-2,5-diphenyltetrazolium bromide)] assay (PerkinElmer, Waltham, MA). For the MTT assay, cells were seeded at 90% confluence in 96-well plates and titrated with different dosages of compound (IIa) for 4 days. Media was then removed and 100 μl of MTT (Sigma-Aldrich, St. Louis, MO) was added per well. Cells were incubated for 2 hours at 37° C. before adding 100 μl of DMSO to each well and quantified with the SYNERGY™ H1 Multi-Mode Reader (BioTek Instruments Inc., Winooski, VT). The expression of PRMT5 was examined in pancreatic ductal adenocarcinoma cells at multiple stages of disease progression and in multiple colorectal cancer cell lines. Pancreatic control (HPNE) and cancer cell lines (PANC1, MiaPaCa2 and AsPC1) were grown in Dulbecco's Modified Eagle Medium (DMEM) (GE Healthcare, Little Chalfont, UK), supplemented with 1% of penicillin/streptomycin, 10% fetal bovine serum (FBS). Colon control (FHC) and cancer (HT29, HCT116, and DLD1) cell lines were maintained in RPMI 1640 Medium (Roswell Park Memorial Institute Medium) (GE Healthcare, Little Chalfont, UK), containing 1% penicillin/streptomycin and 10% FBS, while FHC cells were cultured under the same condition with further addition of 25 mM HEPES (4-(2-hydroxyethyl)-1-piperazineethanesulfonic acid), 10 ng/ml cholera toxin, 0.005 mg/ml insulin, 0.005 mg/ml transferring, and 100 ng/ml hydrocortisone. All cell lines were cultured at 37° C. under 5% CO2. The PDAC and CRC cell lines described above were treated with increasing concentrations of compound (IIa) or the commercially available PRMT5 inhibitor EPZ015666 [drawing 12] and quantified for cell viability using the MTT assay described above. […] A soft agar experiment was also performed to determine the effect of compound (IIa) on colony growth.

[3] = system: CRC cells (HT29, HCT116 and DLD1); test: MTT cell viability assay in CRC cell lines; format: cell-based
Description: as §1

[4] = system: other protein arginine methyltransferase family members; test: HotSpot radioisotope-based methyltransferase platform (Reaction Biology Corp); format: biochemical; conditions: did not inhibit or at least this fold higher IC50
[5] = system: NF-κB target genes (TNFα and IL8); test: qPCR of NF-κB target genes in HT29 cells; format: cell-based; conditions: treated vs untreated
Description: Furthermore, experiments were performed to determine if PRMT5 inhibition by compound (IIa) could decrease the expression of NF-κB target genes (e.g., pro-inflammatory cytokines TNFα and IL-8). Briefly, HT29 and PANC1 cells were treated with or without compound (IIa), and target gene expression was analyzed by quantitative PCR.

[6] = system: PRMT5-mediated p65 methylation; test: Co-immunoprecipitation-Western blot of p65 dimethylation in 293-WT-p65-Flag cells; format: cell-based; conditions: 20 μM for 24 hours, compared to untreated control
Excerpt: FIGS. 2A-D depict the experimental results of studies to determine the PRMT5 inhibitory activity of a compound of formula (II), a compound of formula (III), and a compound of formula (IV). […] Flag beads were used to pull down WT-p65-Flag and samples were then probed with anti-symmetric dimethyl arginine motif Ab (sdme-RG Ab) to detect dimethylation levels of the p65 subunit.
Amongst the hits, the leading compounds were a compound of formula (II), specifically compound (IIa), a compound of formula (III), specifically compound (IIIa), and a compound of formula (IV), specifically compound (Iva). […] To determine whether compound (IIa) reduced p65 methylation of NF-κB, Flag-p65 expressing cells were treated with 20 μM compound (IIa) for 24 hours, Flag-p65 was then pulled down with anti-Flag-M2 beads and analyzed with Western blot by probing with anti-dimethylated arginine (FIG. 2B).

SMILES: Cc1ccc(Nc2nc(NCCN(C)C)nc3c2cnn3-c2ccccc2)cc1C [compound (IIa)]
- body weight, HT29 model [1]: did not visibly affect the body weight; also recorded: no significant changes in body weight
- body weight, PANC1 model [1]: did not visibly affect the body weight; also recorded: no significant changes in body weight
- anchorage-independent growth / colony formation, HT29 (CRC) (HT29 cells): strongly inhibited colony formation; also recorded: significant decrease
- cell viability in PDAC cells (PANC1, MiaPaCa2, AsPC1), MTT ([2]; increasing concentrations): decreased significantly
- IC50 ([2]; range over PANC1, MiaPaCa2 and AsPC1): 2 to 4 µM
- cell viability in CRC cells (HT29, HCT116, DLD1), MTT ([3]; increasing concentrations): decreased significantly
- IC50 ([3]; range over HT29, HCT116 and DLD1): 10 to 11 µM
- fold higher IC50 against other protein arginine methyltransferase family members [4]: ≥ 10 fold
- IL8 expression (qPCR), HT29 [5]: significant decrease; also recorded: dramatically decreased
- TNFα expression (qPCR), HT29 [5]: significant decrease; also recorded: dramatically decreased
- methylation of PRMT5 substrate p65 [6]: significantly inhibited PRMT5-mediated p65 methylation; also recorded: inhibited the methylation of PRMT5 substrate, p65
